For assay [1], the system named is human T cells. Briefly: Secondary (recall) alloproliferative response of T cells primed in vitro. Format: cell-based. The procedure:
In this system, we have used responses to first exposure as an indication of primary responses. When cells stimulated in this fashion are rested in culture and then restimulated with the same stimulator PBMCs, the 'recall' response measured are taken as an indication of immune memory. Proliferation is measured by the incorporation of radioactive tritiated thymidine in dividing cells. For priming, responder and stimulator cells mixed in 2-5 ml cultures in a ratio of 1:1-3:1. After five days of incubation, the cells were harvested, counted and viable cells used as primed responders with g-irradiated allostimulators in secondary alloproliferation assays, which were pulsed with (H^3)-thymidine after four days for estimating cell proliferation. For flow cytometric analysis, cells were separated from debris by Ficoll-Paque gradient centrifugation before staining. […] Sigma Chemical Co.) at room temperature for 20 minutes, washed extensively and used. For priming in vitro, responder PBMCs were incubated for 72 or 144 h at a ratio of either 1:1 or 2:1 respectively, with stimulator PBMCs. Where appropriate, CsA. Aph. and/or […] were added at the concentrations indicated, of PFA-fixed PBMCs were used instead.

The test system of assay [2] is human T cells. The assay can be described thus: Primary alloproliferative response of responder PBMCs to irradiated MHC-mismatched stimulator PBMCs ([3H]thymidine incorporation). Format: cell-based. The protocol: In this system, we have used responses to first exposure as an indication of primary responses. When cells stimulated in this fashion are rested in culture and then restimulated with the same stimulator PBMCs, the 'recall' response measured are taken as an indication of immune memory. Proliferation is measured by the incorporation of radioactive tritiated thymidine in dividing cells. PBMCs from HLA-mismatched individuals were separated using density-gradient centrifugation on Ficoll-Paque (Pharmacia, Uppsala, Sweden). Stimulator PBMCs were used in titrated doses after g-irradiation (200 rads). For the primary proliferative alloresponses, stimulator in graded doses were used with 1-3×10^5 responders per well in 200 μl of RPMI-1640 (Life Technologies, Grand Island, N.Y.) fortified with L-glutamine (Life Technologies) and antibiotics, containing 10% heat-inactivated responder autologous serum. Cultures were incubated in a CO2 atmosphere for five days, pulsed with 0.5 uCi of (H^3)-thymidine (New England Nuclear, Boston, Mass.) for the last 8-12 hours of the assay and harvested onto glass fiber filters for counting cell-incorporated thymidine (Betaplate; Wallac, Finland). results are expressed as mean cpm±SE for triplicate cultures. Dibutyryl cyclic AMP (dbcAMP), pentoxifylline (POX), aphidicolin (all from Sigma Chemical Co., St Louis, Mo.) and recombinant IL-2 (Boehringer Manheim Corp., Manheim Germany) were added singly or together to the culture in various doses as indicated during priming and in primary alloresponse assays. […] Sigma Chemical Co.) at room temperature for 20 minutes, washed extensively and used. PBMCs from MHC-mismatched donors were used as responder-stimulator pairs. Stimulator cells were used after γ-irradiation (200 rad) at various concentrations, as shown. Proliferation assays were set up as parallel cultures and were pulsed and harvested as below on different days when necessary for the analyses of the kinetics of the response. Where appropriate, cyclosporin A (CsA, Sandoz, Milan, Italy), aphidicolin (Aph, Sigma Chemical Co., and/or pentoxifylline ([…], Sigma Chemical Co.) Were added at the concentrations indicated, or PFA-fixed PBMCs were used. The plated were pulsed with 0.5 to 1 μCi of (^3H)thymidine ([^3H]TdR. Amersham, Little Chalfont, U.K.) During the last 12 to 16 h of the assay (4 days for a recall assay and 6 days for a primary assay, unless indicated otherwise). [^3H] TdR incorporation was measured by harvesting the cultures on glass-fibers and counting in a scintillation counter (Betaplate: LKB-Pharmacia. Uppsala, […]). The results are expressed as mean cpm±SE of triplicate cultures.
(In general: Incorporation of labelled thymidine or its analogues reports DNA synthesis.)

Assay [3] deals with allo-specific precursor T cells. Briefly: Limiting dilution analysis of clonal responder frequency and burst size. In kind it is cell-based, human. The following applies: drug present during priming (POX 100 ug/ml). The source says: Limiting dilution analyses were used to calculate the number of transplantation antigen-specific memory T cells in cultures primed in the presence or absence of POX. Multiple replicate wells of titrated numbers of primed responders were restimulated. the numbers of wells showing proliferative responses at each responder dose were used to calculate the frequency of responding memory t cells in the primed populations. estimates of the extent of proliferation in wells effectively containing single responder cells served as a measure of clonal burst size. […] To determine the frequence of all-specific precursor cells in the various responder populations, titrating numbers (from 10,000 to 200 per well) of variously primed cells were added to a constant number (1×10^5 per well) of g-irradiated stimulator PBMCs. Of the 48 wells plated per responder dose, those wells showing a response at least twice that of the background value were scored positive. The responder frequency was calculated by taking the number of negative wells into account. The response was considered clonal at the responder cell number where the proportion of positively responding wells was less than 37%. At responder cell concentrations showing clonal frequencies, the average cpm values of responding (versus non-responding) wells were used as an estimate of the average clonal burst size of single responding T cells.

For a further assay, the system named is CD25+ CD4 T cells. The assay can be described thus: Flow cytometry of CD25 and Fas (CD95) on primed cells. Format: cell-based, human. The following applies: aphidicolin 1 ug/ml present during two-day rest period. The procedure: For analysis of cell surface markers, primed cell populations separated on Ficoll-Paque gradients were used. […] Briefly, 1-3×10^5 cells per well were stained with primary antibodies at 4° C., followed by appropriately labeled secondary reagents if required. Samples were analyzed using a Bryte flow cytometer (bio-Rad, Hemel Hampstead, UK). Antibodies to the T cell markers CD3 (OKT3), CD4 (OKT4), and to the activation markers CD25 and Fas (CD95) were used for staining. To detect apoptosis using propidium iodide (PI, Sigma Chemical Co.), antibody-stained cells were fixed and permeabilized with 70% ethanol, washed, and PI […] added just before cytometric analysis. Data were analyzed using FlowJo software (Treestar, San Jose, Calif.).
The phenotype of CD4 T cells activated during priming in vitro was examined next using various markers associated with T cell activation. Antibodies against CD25 (IL-2Ra), CD26, CD45RO, CD69 and gp240 were used, but except for CD25, none of the other markers gave consistent and reliable results (data not shown). CD25 expression on CD4 T cells in the responder populations was examined in a two-color flow cytometric analysis at two separate time points,—at the end of six days of priming and after two further rest days in culture after washing and resuspension in resh medium without any stimuli. Most CD25-expressing cells in the primed cultures were CD4 T cells. […] The frequency of CD25 expression increased in the PBMC-primed responders (FIG. 17B) and this percentage was lower if POX (100 μg/ml) was present during priming (FIG. 17C). […] Similar data were observed if dbcAMP was present during priming (data not shown). It can be seen that the proportion of CD25* cells was reproducibly lower if POX was present during priming with allo-PBMCs. However, after 48 hours of rest in culture, the frequency of CD25* cells declined in the populations primed in the absence of POX, while it went up in the group primed under POX cover.

Turning to `CCCC(=O)Nc1ncnc2c1ncn2[C@@H]1O[C@@H]2COP(=O)(O)O[C@H]2[C@H]1OC(=O)CCC` [dbcAMP, Dibutyryl cyclic AMP], the recall response in the assay on human T cells [1] (priming in presence of 10 mM dbcAMP) is listed as “No effect”. Further, the secondary response entry with human T cells [1] (priming in presence of 100 mM dbcAMP) is “significant enhancement”. Moreover, the primary proliferative response entry in the assay on human T cells [2] (1 mM dbcAMP) is reported as “inhibits”; in the assay with human T cells [2] (10 mM dbcAMP), “No effect”; in the assay on human T cells [2] (100 mM dbcAMP) it was “does inhibit”. The “frequency of alloreactive responder (memory) T cells” value in assay [3] is recorded as “significantly enhances”.
For the molecule paraformaldehyde [PFA], the “recall response capability induced by PFA-fixed APCs” value with human T cells [1] (0.003% PFA, vs unfixed APCs) is “comparable with or greater than”. Moreover, the “recall response of cells primed with PFA-fixed APCs” value in the assay with human T cells [1] (0.3% PFA, vs unprimed cells) was “distinctly lower”. In the assay on human T cells [2] (0.0003% PFA), the “primary alloproliferative response to PFA-fixed APCs” value was “significant lowering”.
For `C[C@@]1(CO)[C@H](O)CC[C@@]2(C)[C@H]1CC[C@H]1C[C@@H]3C[C@@]12CC[C@]3(O)CO` [Aph, aphidicolin], the “responses of unprimed PBMCs incubated with Aph” value in the assay with human T cells [1] (no stimulators) is listed as “unaltered”. For the same molecule, the figures for the recall response in the assay on human T cells [1] (primed with 1 μg/ml Aph vs primed in absence of Aph) and in the assay on human T cells [1] (primed with 3 μg/ml Aph) were “comparable” and “significant enhancement”, respectively. For the same molecule, the “increase in frequency of CD25+ cells in responders exposed to POX during priming” value in the assay with CD25+ CD4 T cells is “does not abrogate”. The “T cell proliferation in first response” value is recorded as “inhibited substantially” with human T cells [2] (1 μg/ml Aph) and “completely undetectable” in the assay with human T cells [2] (3 μg/ml Aph). Besides, the “kinetics of primary response” value with human T cells [2] (days 4-10, drugs present throughout) is given as “declines equivalently”. The “primary response after drug removal” value in the assay on human T cells [2] (drugs removed on day 6, pulsed days 8 and 10) is “no increase”.

The values are drawn from patent publication US20020086027A1, “Composition and method for enhancing immunological memory response” (priority 1998, published 2002).
